Test results reported in US20220127297A1, “Novel Antibacterial 3"-Derivatives Of 4,6-Disubstituted 2,5-Dideoxystreptamine Aminoglycoside Antibiotics” (AGILeBiotics B.V., priority 2018, published 2022).
Converted amounts (≈) assume the structure as drawn.

system: E. coli (APH(3′)IIIa); experiment: MIC 50, broth micro-dilution, E. coli expressing APH(3′)IIIa; assay type: cell-based, Escherichia coli; settings: ATCC25922 harboring plasmid encoding APH(3′)IIIa
How it was run: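 Broth microdilution in MH2 medium with final compound range 64 μM–31.3 nM, triplicate, incubated 18 h at 37 °C against E. coli ATCC 25922 transformed with the relevant resistance-enzyme plasmid (kanamycin A 50 μg/mL selection; inoculum OD600 0.1). Growth measured at 600 nm; MIC50 is where growth reaches half maximum.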

Compound | MIC50
N=C(N)NC1[C@@H](O)C(OC2[C@@H](O)[C@H](O[C@H]3OC(CN)[C@@H](O)[C@H](O)C3N)C(N)C[C@H]2NC(=O)[C@@H](O)CCN)O[C@H](CO)[C@H]1O (stereo partly shown) [ABX4009, KanaB-AHB-Gua] | 64 µM (≈ 40.1 µg/mL)
N=C(N)NC1[C@@H](O)C(OC2[C@@H](F)[C@H](O[C@H]3OC(CN)[C@@H](O)[C@H](O)C3N)C(N)C[C@H]2NC(=O)[C@@H](O)CCN)O[C@H](CO)[C@H]1O (stereo partly drawn) [ABX4004, 3′epi-KanaB-AHB-F-Gua] | 1 to 2 µM
NCC[C@H](O)C(=O)N[C@@H]1CC(N)[C@@H](O[C@H]2OC(CN)[C@@H](O)CC2N)[C@H](O)C1OC1O[C@H](CO)[C@@H](O)C(N)[C@H]1O (stereo partly shown) [ABX5004, Tobra-AHB] | 4 to 8 µM
NCC[C@H](O)C(=O)N[C@@H]1CC(N)[C@@H](O[C@H]2OC(CN)[C@@H](O)[C@@H](O)C2N)[C@H](O)C1OC1O[C@H](CO)[C@@H](O)C(N)[C@H]1O (stereo partly drawn) [ABX4002, 3′Epi-KanaB-AHB] | 8 µM (≈ 4.68 µg/mL)
NCC[C@H](O)C(=O)N[C@@H]1C[C@H](N)[C@@H](O[C@H]2O[C@H](CN)[C@@H](O)[C@@H](O)[C@H]2O)[C@H](O)[C@H]1O[C@H]1O[C@H](CO)[C@@H](O)[C@H](N)[C@H]1O [ABX3002, 3′Epi-KanaA-AHB] | 16 to 32 µM

same assay, conditions: Escherichia coli, ATCC25922, ATCC25922 harboring plasmid encoding APH(3′)IIIa

Compound | MIC50
N=C(NCC1CC1)NC1[C@@H](O)C(OC2[C@@H](F)[C@H](O[C@H]3OC(CN)[C@@H](O)CC3N)C(N)C[C@H]2NC(=O)[C@@H](O)CCN)O[C@H](CO)[C@H]1O (stereo partly shown) [ABX5027, Tobra-AHB-F-Gua cyclopropylmethyl] | 0.25 to 0.5 µM (≈ 0.167 to 0.333 µg/mL)
N=C(NC[C@H]1CCNC1)NC1[C@@H](O)C(OC2[C@@H](F)[C@H](O[C@H]3OC(CN)[C@@H](O)CC3N)C(N)C[C@H]2NC(=O)[C@@H](O)CCN)O[C@H](CO)[C@H]1O (stereo partly drawn) [ABX5042, Tobra-AHB-F-Gua (S) pyrrolidine-3-ylmethyl] | 0.25 µM (≈ 0.174 µg/mL)
